Assay results from publication PMC8158484, “Activity Components from Gynostemma pentaphyllum for Preventing Hepatic Fibrosis and of Its Molecular Targets by Network Pharmacology Approach” (Molecules, 2021).
Read-outs that look alike come from different tables or passages of the source.

Assays:
Assay type in all cases: cell-based, human
LO2 cells [1] = assay: MTT cell proliferation assay, LO2 normal liver cells; conditions: for IC50: 36 h, MTT, read-out: Inhibitory activity (IC50) in LO2 cells
Description: (§1) The cell viability was assessed with the MTT assay. The human hepatic stellate cells (t-HSC/Cl-6) and human normal liver cells (LO2) bought from the Cell Bank of Chinese Academy of Sciences (Shanghai, China) were seeded in 96-well plates for 24 h and cultured with high glucose including 10% fetal bovine serum, and 1% penicillin/streptomycin were used to culture cells at 37 °C under 5% CO2 and then were treated with serial dilutions of the compounds (25, 50, 100, 200, 400 μM) for another 36 h. For MTT assay, ten microliters of MTT reagent ([…]) was added to each well after removing all the liquid in the wells, and incubated at 37 °C in a humidified atmosphere of 5% CO2 air for 4 h. At the end of incubation, the growth medium was removed and replaced with 100 μL of DMSO at room temperature and agitating on a vortex for 20 min. The absorbance was determined at 490 nm as reference on a Bio-Rad micro-plate reader.

t-HSC/Cl-6 cells [2] = assay: MTT cell proliferation assay, activated t-HSC/Cl-6 cells; conditions: mean ± SD, read-out: Inhibitory activity (IC50) in activated t-HSC/Cl-6 cells
Description: as §1

t-HSC/Cl-6 cells [3] = assay: Cell apoptosis analysis: cell morphology and DAPI nuclear staining, t-HSC/Cl-6 cells; conditions: 36 h
Description: (§2) For cell morphology analysis, t-HSC/C1-6 cells and LO2 cells were grown in 6-well plates. After 24 h, compound 19 was incubated with the cells for another 36 h and 0.1% DMSO was used to culture control cells. […] Then the cells were rinsed with PBS and resuspended in 1 mL of 0.1% DAPI prepared in methanol for 15 min. PBS was used to wash the cells three times. Nuclear morphology was observed by a fluorescent microscope (Olympus BH-2, Osaka, Japan).

t-HSC/Cl-6 cells [4] = assay: Western blotting of cell cycle, PI3K/Akt and caspase proteins
Description: RIPA lysis buffer was used to extract total cellular proteins, and the protein concentration was determined by bicinchoninic acid. Protein samples (20 μg/lane) were loaded onto 10% SDS–PAGE gels for electrophoresis and then the transmembrane was conducted. After that, blocking of polyvinylidene fluoride (PVDF) membrane was carried out using 5% bovine serum albumin in Tris-buffered saline Tween-20 (TBST) buffer for 1 h, subsequently probing with a primary antibody (1:1000 dilution), such as p-PI3K, p-Akt, Cl-caspase-3, Cl-caspase-9, Cl-PARP, CDK4, Cyclin D1, or P21, at 4 °C overnight. Then, TBTS was used to wash the membrane. The PVDF membranes were incubated with the secondary antibody (1:5000 dilution) for 2 h. X-ray films were employed to develop the signals.

t-HSC/C1-6 cells = assay: Cell cycle analysis by flow cytometry (propidium iodide); conditions: 50 μM compound, 36 h; control group 1.04%
Description: The cell cycle analysis was performed using a previous method. The t-HSC/C1-6 cells were cultured in the presence of 50 μM compound 19 and DMSO for 12 h, 24 h, and 36 h. Briefly, treated and untreated cells were trypsinized, harvested, and washed with PBS. Then the cells were fixed with 75% ethanol overnight at […]. Fixed cells were washed with PBS and stained with propidium iodide solution in the dark for 4 h. Cell cycle distribution was analyzed using FACScan (Becton Dickinson Immunocytometry Systems, San Jose, CA, USA).

LO2 cells [5] = assay: Cell apoptosis analysis: cell morphology and DAPI nuclear staining, LO2 cells; conditions: 36 h
Description: as §2

[6] = Rattus norvegicus, T-HSC/Cl-6, 36 h
[7] = dose-dependent manner as printed

Structure (SMILES) | IC50 (LO2 cells [1]; Homo sapiens, L02) [µM] | IC50 (t-HSC/Cl-6 cells [2]; [6]) [µM] | other results
CC(C)=CCCC(O)(COC1OC(CO)C(O)C(O)C1O)C1CCC2(C)C1CCC1C3(C)CCC(OC4OC(CO)C(O)C(OC5OCC(O)C(O)C5O)C4OC4OCC(O)C(O)C4O)C(C)(C)C3CCC12C (centres unmarked) [Compound 1] | > 200 | > 200 | –
CC(C)=CCCC(O)(CO)C1CCC2(C)C1CCC1C3(C=O)CCC(OC4OCC(O)C(O)C4OC4OC(C)C(O)C(O)C4O)C(C)(C)C3CCC12C (centres unmarked) [Compound 2] | > 200 | 50.4 ± 1.4 | –
C=C(C)OCC1OC(OC2CCC3(C)C(CCC4(C)C3CCC3C(C(O)(CCC=C(C)C)COC5OC(CO)C(O)C(O)C5O)CCC34C)C2(C)C)C(OC2OC(C)C(O)C(O)C2O)C(OC2OCC(O)C(O)C2O)C1O (centres unmarked) [Compound 3] | > 200 | > 200 | –
C=C(C)OCC1OC(OC2CCC3(C)C(CCC4(C)C3CCC3C(C5(O)CC(C=C(C)C)OC5=O)CCC34C)C2(C)C)C(OC2OC(C)C(O)C(O)C2O)C(OC2OCC(O)C(O)C2O)C1O (centres unmarked) [Compound 4] | > 200 | 126 ± 9.7 | –
C=C(C)OCC1OC(OC2CCC3(C)C(CCC4(C)C3CCC3C(C5(O)CC(C=C(C)C)OC5O)CCC34C)C2(C)C)C(OC2OC(C)C(O)C(O)C2O)C(OC2OCC(O)C(O)C2O)C1O (centres unmarked) [Compound 5] | > 200 | > 200 | –
CC(C)=CC1CC(O)(C2CCC3(C)C2CCC2C4(C)CCC(OC5OC(CO)C(O)C(OC6OCC(O)C(O)C6O)C5OC5OC(C)C(O)C(O)C5O)C(C)(C)C4CCC23C)C(=O)O1 (centres unmarked) [Compound 6] | – | – | IC50 (LO2 cells [1]): > 200 µM; IC50 (t-HSC/Cl-6 cells [2]; 36 h): 99.9 ± 4.5 µM
CC(C)=CCCC(O)(CO)C1CCC2(C)C1CCC1C3(C)CCC(OC4OC(CO)C(O)C(OC5OCC(O)C(O)C5O)C4OC4OC(C)C(O)C(O)C4O)C(C)(C)C3CCC12C (centres unmarked) [Compound 7] | > 200 | 152 ± 7.4 | –
CC(C)=CC1CC(O)(C2CCC3(C)C2CCC2C4(C)CCC(OC5OC(CO)C(O)C(OC6OCC(O)C(O)C6O)C5OC5OC(C)C(O)C(O)C5O)C(C)(C)C4CCC23C)C(O)O1 (centres unmarked) [Compound 8] | > 200 | 68.8 ± 3.2 | –
CC(C)=CC1CC(O)(C2CCC3(C)C2CCC2C4(C)CCC(OC5OC(CO)C(O)C(OC6OCC(O)C(O)C6O)C5OC5OC(C)C(O)C(O)C5O)C(C)(C)C4CCC23C)C(=O)O1 (centres unmarked) [Compound 9] | > 200 | 114 ± 7.8 | –
CC(C)=CCCC(O)(COC1OC(CO)C(O)C(O)C1O)C1CCC2(C)C1CCC1C3(C=O)CCC(OC4OCC(O)C(OC5OC(CO)C(O)C(O)C5O)C4OC4OC(C)C(O)C(O)C4O)C(C)(C)C3CCC12C (centres unmarked) [Compound 10] | > 200 | > 200 | –
CC(C)=CCCC(O)(CO)C1CCC2(C)C1CCC1C3(C=O)CCC(OC4OCC(O)C(OC5OCC(O)C(O)C5O)C4OC4OC(C)C(O)C(O)C4O)C(C)(C)C3CCC12C (centres unmarked) [Compound 11] | > 200 | 43.6 ± 2.7 | –
CC(C)=CCCC(O)(COC1OC(CO)C(O)C(O)C1O)C1CCC2(C)C1CCC1C3(C)CCC(OC4OC(CO)C(O)C(OC5OCC(O)C(O)C5O)C4OC4OC(C)C(O)C(O)C4O)C(C)(C)C3CCC12C (centres unmarked) [Compound 12] | > 200 | > 200 | –
CC(C)=CCCC(O)(COC1OC(CO)C(O)C(O)C1O)C1CCC2(C)C1CCC1C3(C)CCC(OC4OC(CO)C(O)C(OC5OCC(O)C(O)C5O)C4OC4OC(C)C(O)C(O)C4O)C(C)(C)C3CCC12C (centres unmarked) [Compound 13] | – | – | IC50 (LO2 cells [1]): > 200 µM; IC50 (t-HSC/Cl-6 cells [2]; 36 h): 106 ± 2.6 µM
CC(C)=CCCC(O)(COC1OC(CO)C(O)C(O)C1O)C1CCC2(C)C1CCC1C3(CO)CCC(OC4OC(CO)C(O)C(OC5OCC(O)C(O)C5O)C4OC4OC(C)C(O)C(O)C4O)C(C)(C)C3CCC12C (centres unmarked) [Compound 14] | > 200 | > 200 | –
CC(C)=CCCC(O)(COC1OC(CO)C(O)C(O)C1O)C1CCC2(C)C1CCC1C3(CO)CCC(OC4OCC(O)C(OC5OCC(O)C(O)C5O)C4OC4OC(C)C(O)C(O)C4O)C(C)(C)C3CCC12C (centres unmarked) [Compound 15] | > 200 | > 200 | –
CCCCOC1OC(C=C(C)C)CC1(O)C1CCC2(C)C1CCC1C3(C)CCC(OC4OCC(O)C(OC5OCC(O)C(O)C5O)C4OC4OC(C)C(O)C(O)C4O)C(C)(C)C3CCC12C (centres unmarked) [Compound 16] | > 200 | 44.7 ± 1 | –
CC(=O)OCC1OC(OC2CCC3(C)C(CCC4(C)C3CCC3C(C5(O)CC(C=C(C)C)OC5=O)CCC34C)C2(C)C)C(OC2OC(C)C(O)C(O)C2O)C(OC2OCC(O)C(O)C2O)C1O (centres unmarked) [Compound 17] | > 200 | 66.1 ± 3.8 | –
C=C(C)C=CCC(O)(COC1OC(CO)C(O)C(O)C1O)C1CCC2(C)C1CCC1C3(C)CCC(OC4OC(CO)C(O)C(OC5OCC(O)C(O)C5O)C4OC4OCC(O)C(O)C4O)C(C)(C)C3CCC12C (centres unmarked) [Compound 18] | > 200 | 58 ± 2.9 | –
CCCCOC1OC(C=C(C)C)CC1(O)C1CCC2(C)C1CCC1C3(C)CCC(OC4OC(CO)C(O)C(OC5OCC(O)C(O)C5O)C4OC4OC(C)C(O)C(O)C4O)C(C)(C)C3CCC12C (centres unmarked) [Compound 19] | > 200 | 28.1 ± 2 | Nuclear morphology of t-HSC/Cl-6 cells (DAPI staining) (t-HSC/Cl-6 cells [3]): Typical apoptotic nuclear changes were observed; Cell morphology (apoptosis) of t-HSC/Cl-6 cells (t-HSC/Cl-6 cells [3]; phase contrast microscopy): apoptotic bodies and cell shrinkage were observed; Cytotoxicity to LO2 cells (LO2 cells [1]; in words): nontoxic; cyclin D1 expression (t-HSC/Cl-6 cells [4]): decreased; p21 level (t-HSC/Cl-6 cells [4]): significant accumulation; Expression of phosphorylated-Akt (t-HSC/Cl-6 cells [4]; as time increased): inhibited; Expression of phosphorylated-PI3K (t-HSC/Cl-6 cells [4]; as time increased): inhibited; Expression level of cleaved caspase-3 (t-HSC/Cl-6 cells [4]; [7]): activated; Expression level of cleaved caspase-9 (t-HSC/Cl-6 cells [4]; [7]): activated; Cells in the subG1 phase (t-HSC/C1-6 cells): 38.63%; Nuclear morphology of LO2 cells (DAPI staining) (LO2 cells [5]): did not appear to have any specific effect; Cell morphology of LO2 cells (LO2 cells [5]; phase contrast microscopy): no shrinkage was seen
